Patent US8735601B2, “Pentamethine cyanine fluorescent dye with N-substituting at β-position of conjugated chain” (Dalian University of Technology, priority 2010, dated 2014)

How the values were obtained:
calf thymus DNA (ct-DNA) = assay: Titration of dye solution with calf thymus DNA, fluorescence and UV absorption; assay type: binding; conditions: dye 1×10^−6 M, PBS pH 7.4; listed as Ha
Procedure: The solutions of compounds Ha to IIc in a concentration of 1×10^−6M (10 mM PBS buffer (pH=7.4) was used as solvent) was prepared, and 3 ml of the each dye solution was added into a cuvette separately. Then, an aqueous calf thymus DNA stock solution was prepared, the concentration of the calf thymus DNA stock solution was determined as 1.5×10^−3 mM by the absorbance at 260 nm on UV absorption spectrophotometer. The calf thymus DNA stock solution was added dropwise into each of the dye solution. The fluorescence intensity of the dye was measured each 5 minutes after addition of […] for fluorescence becoming stable, on UV-visible spectrophotometer (Mode: Hp8453) and fluorescence spectrophotometer (Mode: FP-6500).
From the interaction results of three dyes with calf thymus DNA, it can be known that no evident fluorescence increase was found after the interaction of the dye with the DNA. FIGS. 4 and 5 were titration figures of the interaction of dye lib with calf thymus DNA. […] All of these indicated DNA could be differentiated from protein by dyes IIa, IIb and IIc.

[1] = Measurement of fluorescence quantum yield (Rhodamine B in ethanol as reference); assay type: physicochemical
[2] = target: bovine serum albumin (BSA) (Bos taurus, UniProt P02769); assay: Titration of dye solution with BSA, fluorescence and UV absorption; assay type: binding; conditions: dye solution 1 μM, PBS pH 7.4; listed as Ha
Sequence of bovine serum albumin (BSA) (P02769 25-607): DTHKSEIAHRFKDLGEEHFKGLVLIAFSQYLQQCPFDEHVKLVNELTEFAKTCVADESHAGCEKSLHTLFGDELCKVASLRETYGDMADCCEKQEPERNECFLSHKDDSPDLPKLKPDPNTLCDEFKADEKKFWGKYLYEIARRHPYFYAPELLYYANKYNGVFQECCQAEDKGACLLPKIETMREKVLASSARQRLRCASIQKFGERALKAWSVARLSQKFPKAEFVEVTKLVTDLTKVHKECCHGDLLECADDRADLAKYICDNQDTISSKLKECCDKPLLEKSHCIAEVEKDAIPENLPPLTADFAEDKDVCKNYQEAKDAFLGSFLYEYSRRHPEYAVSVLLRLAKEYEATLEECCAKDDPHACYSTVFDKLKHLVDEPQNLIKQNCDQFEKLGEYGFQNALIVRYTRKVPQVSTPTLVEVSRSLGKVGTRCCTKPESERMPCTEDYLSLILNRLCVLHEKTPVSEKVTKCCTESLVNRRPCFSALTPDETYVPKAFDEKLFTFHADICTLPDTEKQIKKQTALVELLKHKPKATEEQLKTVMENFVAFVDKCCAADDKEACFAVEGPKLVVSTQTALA
Procedure: The solutions of compounds Ha to IIc in a concentration of 1×10^−6M (10 mM PBS buffer (pH=7.4) was used as solvent) was prepared, and 3 ml of the each dye solution was added into a cuvette, respectively. Then, an aqueous bovine serum albumin (BSA) stock solution with the concentration of […] (750 μM) was added dropwise into each of the dye solution. The fluorescence intensity of the dye was measured each 5 minutes after addition of BSA for fluorescence becoming stable, on UV-visible spectrophotometer (Mode: Hp8453) and fluorescence spectrophotometer (Mode: FP-6500).
Especially for dyes IIb and IIc, the fluorescence intensity thereof was increased linearly with addition of BSA to arrive at more than 30 folds.

[3] = Absorption and emission spectra of dyes in different solvents; assay type: physicochemical; parameters: key to Δλ1 / Δλ2: Stokes shift in nm; ε1 (molar extinction coefficient) / ε2 (molar extinction coefficient): scale not given here; conditions: for Δλ1: Stokes shift to absorption peak 1; for Δλ2: Stokes shift to absorption peak 2
From the text: In the present invention, compounds IIa to IIg were synthesized based on compound II, and their spectral properties were investigated. Compared with the traditional pentamethine cyanine dye, for the novel pentamethine cyanine dye with N-substituting at β-position (deviated position), it was observed that, evident blue shift of absorption and emission wavelengths occurred, absorption wavelength blue shifted even largely than that of emission wavelength, absorption spectrum and fluorescence spectrum were no longer mirror-symmetric and had two absorption peaks and a single emission peak, and larger Stokes shift (minimum 60 and 150 nm, and maximum 90 and 230 nm) appeared.

CCN1/C(=C/C=C/C(N)=C/C2=[N+](CC)c3ccccc3C2(C)C)C(C)(C)c2ccccc21 [Dye IIa]
change of fluorescence by interaction with ct-DNA (calf thymus DNA (ct-DNA)): little fluorescence increase | Φ1 (fluorescence quantum yield) ([1]; solvent DCM): 0.115 | Φ2 (fluorescence quantum yield) ([1]; solvent DCM): 0.032 | Φ1 (fluorescence quantum yield) ([1]; solvent DMSO): 0.020 | Φ2 (fluorescence quantum yield) ([1]; solvent DMSO): 0.009 | Φ1 (fluorescence quantum yield) ([1]; solvent Ethanol): 0.014 | Φ2 (fluorescence quantum yield) ([1]; solvent Ethanol): 0.009 | Φ1 (fluorescence quantum yield) ([1]; solvent Methanol): 0.007 | Φ2 (fluorescence quantum yield) ([1]; solvent Methanol): 0.004 | Φ1 (fluorescence quantum yield) ([1]; solvent THF): 0.053 | Φ2 (fluorescence quantum yield) ([1]; solvent THF): 0.008 | Φ1 (fluorescence quantum yield) ([1]; solvent Water): 0.002 | Φ2 (fluorescence quantum yield) ([1]; solvent Water): 0.001 | change of fluorescence intensity by interaction with protein (BSA) [2]: largely increased | Δλ1 ([3]; solvent DCM): 63 | Δλ1 ([3]; solvent DMSO): 75 | Δλ1 ([3]; solvent Ethanol): 75 | Δλ1 ([3]; solvent Methanol): 78 | Δλ1 ([3]; solvent THF): 64 | Δλ1 ([3]; solvent Water): 92 | Δλ2 ([3]; solvent DCM): 191 | Δλ2 ([3]; solvent DMSO): 189 | Δλ2 ([3]; solvent Ethanol): 182 | Δλ2 ([3]; solvent Methanol): 188 | Δλ2 ([3]; solvent THF): 182 | Δλ2 ([3]; solvent Water): 203 | ε1 (molar extinction coefficient) ([3]; solvent DCM): 5.4 cm^−1M | ε2 (molar extinction coefficient) ([3]; solvent DCM): 1.6 cm^−1M | λabs1 ([3]; solvent DCM): 546 nm | λbs2 ([3]; solvent DCM): 418 nm | λem ([3]; solvent DCM): 609 nm | ε1 (molar extinction coefficient) ([3]; solvent DMSO): 4.9 cm^−1M | ε2 (molar extinction coefficient) ([3]; solvent DMSO): 1.7 cm^−1M | λabs1 ([3]; solvent DMSO): 533 nm | λbs2 ([3]; solvent DMSO): 419 nm | λem ([3]; solvent DMSO): 608 nm | ε1 (molar extinction coefficient) ([3]; solvent Ethanol): 4.8 cm^−1M | ε2 (molar extinction coefficient) ([3]; solvent Ethanol): 2.0 cm^−1M | λabs1 ([3]; solvent Ethanol): 527 nm | λbs2 ([3]; solvent Ethanol): 420 nm | λem ([3]; solvent Ethanol): 602 nm | ε1 (molar extinction coefficient) ([3]; solvent Methanol): 5.1 cm^−1M | ε2 (molar extinction coefficient) ([3]; solvent Methanol): 2.0 cm^−1M | λabs1 ([3]; solvent Methanol): 528 nm | λbs2 ([3]; solvent Methanol): 418 nm | λem ([3]; solvent Methanol): 606 nm | ε1 (molar extinction coefficient) ([3]; solvent THF): 4.8 cm^−1M | ε2 (molar extinction coefficient) ([3]; solvent THF): 1.6 cm^−1M | λabs1 ([3]; solvent THF): 526 nm | λbs2 ([3]; solvent THF): 408 nm | λem ([3]; solvent THF): 590 nm | ε1 (molar extinction coefficient) ([3]; solvent Water): 3.6 cm^−1M | ε2 (molar extinction coefficient) ([3]; solvent Water): 1.7 cm^−1M | λabs1 ([3]; solvent Water): 527 nm | λbs2 ([3]; solvent Water): 416 nm | λem ([3]; solvent Water): 619 nm

CCN1/C(=C/C=C/C(=C/C2=[N+](CC)c3ccccc3C2(C)C)Nc2ccccc2)C(C)(C)c2ccccc21 [Dye IIg]
Φ1 (fluorescence quantum yield) ([1]; solvent DCM): 0.064 | Φ2 (fluorescence quantum yield) ([1]; solvent DCM): 0.055 | Φ1 (fluorescence quantum yield) ([1]; solvent DMSO): 0.014 | Φ2 (fluorescence quantum yield) ([1]; solvent DMSO): 0.002 | Φ1 (fluorescence quantum yield) ([1]; solvent Ethanol): 0.019 | Φ2 (fluorescence quantum yield) ([1]; solvent Ethanol): 0.006 | Φ1 (fluorescence quantum yield) ([1]; solvent Methanol): 0.011 | Φ2 (fluorescence quantum yield) ([1]; solvent Methanol): 0.004 | Φ1 (fluorescence quantum yield) ([1]; solvent THF): 0.037 | Φ2 (fluorescence quantum yield) ([1]; solvent THF): 0.0002 | Φ1 (fluorescence quantum yield) ([1]; solvent Water): 0.003 | Φ2 (fluorescence quantum yield) ([1]; solvent Water): 0.001 | Δλ1 ([3]; solvent DCM): 75 | Δλ1 ([3]; solvent DMSO): 80 | Δλ1 ([3]; solvent Ethanol): 77 | Δλ1 ([3]; solvent Methanol): 77 | Δλ1 ([3]; solvent THF): 83 | Δλ1 ([3]; solvent Water): 81 | Δλ2 ([3]; solvent DCM): 180 | Δλ2 ([3]; solvent DMSO): 230 | Δλ2 ([3]; solvent Ethanol): 206 | Δλ2 ([3]; solvent Methanol): 208 | Δλ2 ([3]; solvent THF): 236 | Δλ2 ([3]; solvent Water): 200 | ε1 (molar extinction coefficient) ([3]; solvent DCM): 3.6 cm^−1M | ε2 (molar extinction coefficient) ([3]; solvent DCM): 2.1 cm^−1M | λabs1 ([3]; solvent DCM): 570 nm | λbs2 ([3]; solvent DCM): 465 nm | λem ([3]; solvent DCM): 645 nm | ε1 (molar extinction coefficient) ([3]; solvent DMSO): 1.9 cm^−1M | ε2 (molar extinction coefficient) ([3]; solvent DMSO): 2.1 cm^−1M | λabs1 ([3]; solvent DMSO): 566 nm | λbs2 ([3]; solvent DMSO): 416 nm | λem ([3]; solvent DMSO): 646 nm | ε1 (molar extinction coefficient) ([3]; solvent Ethanol): 2.5 cm^−1M | ε2 (molar extinction coefficient) ([3]; solvent Ethanol): 2.0 cm^−1M | λabs1 ([3]; solvent Ethanol): 563 nm | λbs2 ([3]; solvent Ethanol): 434 nm | λem ([3]; solvent Ethanol): 640 nm | ε1 (molar extinction coefficient) ([3]; solvent Methanol): 2.3 cm^−1M | ε2 (molar extinction coefficient) ([3]; solvent Methanol): 2.2 cm^−1M | λabs1 ([3]; solvent Methanol): 561 nm | λbs2 ([3]; solvent Methanol): 430 nm | λem ([3]; solvent Methanol): 638 nm | ε1 (molar extinction coefficient) ([3]; solvent THF): 0.9 cm^−1M | ε2 (molar extinction coefficient) ([3]; solvent THF): 2.8 cm^−1M | λabs1 ([3]; solvent THF): 556 nm | λbs2 ([3]; solvent THF): 403 nm | λem ([3]; solvent THF): 639 nm | ε1 (molar extinction coefficient) ([3]; solvent Water): 1.7 cm^−1M | ε2 (molar extinction coefficient) ([3]; solvent Water): 2.2 cm^−1M | λabs1 ([3]; solvent Water): 559 nm | λbs2 ([3]; solvent Water): 440 nm | λem ([3]; solvent Water): 640 nm
